Data taken from the NIST ThermoML archive (doi:10.1021/je050348f).

Assay: osmotic coefficient (dimensionless); mn = molality of the nth substance listed, in mol/kg
Details: 101 kPa, Liquid, Knauer vapor pressure osmometer

Cc1ccc(S(=O)(=O)[O-])cc1.[Na+] [sodium p-toluenesulfonate] + O
osmotic coefficient
Details | 313.15 K | 318.15 K | 323.15 K
m1 = 0.02 | 0.985 | 0.98 | 0.968
m1 = 0.04 | 0.964 | 0.96 | 0.956
m1 = 0.06 | 0.944 | 0.941 | 0.939
m1 = 0.08 | 0.933 | 0.931 | 0.928
m1 = 0.1 | 0.921 | 0.92 | 0.916
m1 = 0.12 | 0.911 | 0.908 | 0.904
m1 = 0.14 | 0.902 | 0.898 | 0.894
m1 = 0.15 | 0.897 | 0.895 | 0.892
m1 = 0.16 | 0.891 | 0.888 | 0.885
m1 = 0.17 | 0.888 | 0.887 | 0.882
m1 = 0.2 | 0.867 | 0.864 | 0.86
m1 = 0.22 | 0.876 | 0.873 | 0.869
m1 = 0.3 | 0.839 | 0.836 | 0.831
m1 = 0.35 | 0.806 | 0.803 | 0.8
m1 = 0.4 | 0.771 | 0.76 | 0.755
m1 = 0.45 | 0.76 | 0.756 | 0.75
m1 = 0.5 | 0.75 | 0.743 | 0.739
m1 = 0.6 | 0.72 | 0.711 | 0.696
m1 = 0.7 | 0.71 | 0.685 | 0.676
m1 = 0.8 | 0.701 | 0.683 | 0.674
